# Results as given in patent US4758580A, “Inhibiting growth of tumors with certain substituted phenoxy dimethyl alkanoic acids, esters or salts” (Yamanouchi Pharmaceutical Co., Ltd., priority 1985, dated 1988).
# What was measured:
# Ehrlich solid tumor = assay: Anti-tumor test against Ehrlich solid tumor; assay type: in vivo, ddY/SLC mice
# Experimental: Ehrlich tumor cells, 2×10^6, on Day 7 after intraperitoneal transplantation to ddY/SLC mice were subcutaneously transplanted in the left abdomen of ddY/SLC mice (5 week age, male), 10 each grouped into one. The active component was intraperitoneally or orally administered in a definite dose 24 hours after the transplantation, according to the schedule shown in Table 1 (A), (B) or (C). An effect of inhibiting growth of tumor was compared, by measuring the long diameter and short diameter of the tumor on 14, 20 and 21 Days after the transplantation, calculating the tumor size (mm^2) and determining a tumor growth inhibition rate of the group administered with the active component to the control group according to the following equation:
# Growth inhibition rate (%)=(C-T)/C×100
# T: means tumor size (mm^2) in the active component-administered group
# C: mean tumor size (mm^2) in the control group
# Bowes (melanoma) = assay: In vitro cytotoxicity against human tumor cells, Bowes; assay type: cell-based; conditions: 72 h, Bowes, 3 days, 37° C., crystalviolet, read-out: IC50
# Experimental: (§1) A suspension of cells in a culture medium was transferred into wells in a microplate in an amount of 5×10^4 cells/well. Test sample diluted with a culture medium was added to the suspension in each well, and the mixture was incubated at 37° C. for 3 days in an atmosphere of air containing 5% carbon dioxide. After skimming, sticking cells were dyed which crystalviolet for 10 minutes. After washing with water, 1% sodium lauryl sulfate solution was added to each well, and the absrobancy (optical density) at […] was measured. "% inhibition" was calculated from the following equation. [formula]
# MM-46 ascites tumor = assay: Anti-tumor test against mice mammary cancer MM-46 ascites tumor; assay type: in vivo, C3 H/He/CRJ mice
# Experimental: MM-46 tumor cells, 1×10^6, on Day 7 after intraperitoneal transplantation to C3 H/He/CRJ mice (5 week age, male) of 10 mice each being grouped in one. The active component was intraperitoneally administered in a definite dose 24 hours after the transplantation according to the schedule shown in Table 5. An effect of tumor growth inhibition was evaluated by a percentage of the median survival time of the administered group versus that of the control group, according to the following equation.
# T: median survival day of the administered group
# C: median survival day of the control group
# [1] = test system: Meth A (methylcholanthrene-induced cancer); assay: In vitro cytotoxicity against mouse tumor cells, Meth A; assay type: cell-based; conditions: 72 h, Meth A, 3 days, 37° C., trypan blue, read-out: IC50
# Experimental: (§2) A suspension of cells in a culture medium was transferred into wells in a microplate in an amount of 1×10^5 cells/wall. Test sample diluted with a culture medium was added to the suspension in each well, and the mixture was incubated on the medium at 37° C. for 3 days in atmosphere of air containing 5% carbon dioxide. Thereafter, the incubated cells were recovered from the microplate and the number of live cells was counted by the dye exclusion test using a 0.5% solution of trypan blue and by using a hemocytomer.
# [2] = test system: KB (nasal cavity & pharynx cancer); assay: In vitro cytotoxicity against human tumor cells, KB; assay type: cell-based; conditions: 72 h, KB, 3 days, 37° C., crystalviolet, read-out: IC50
# Experimental: as §1
# MM 46 (mammary cancer) = assay: In vitro cytotoxicity against mouse tumor cells, MM 46; assay type: cell-based; conditions: 72 h, 3 days, 37° C., trypan blue
# Experimental: as §2
# L-1210 = assay: In vitro cytotoxicity against mouse tumor cells, L-1210; assay type: cell-based; conditions: L1210, 72 h, L-1210, 3 days, 37° C., trypan blue, read-out: IC50
# Experimental: as §2
# Ehrlich (carcinoma) = assay: In vitro cytotoxicity against mouse tumor cells, Ehrlich; assay type: cell-based; conditions: 72 h, Ehrlich (carcinoma), 3 days, 37° C., trypan blue, read-out: IC50
# Experimental: as §2
# ACHN (kidney cancer) = assay: In vitro cytotoxicity against human tumor cells, ACHN; assay type: cell-based; conditions: 72 h, 3 days, 37° C., crystalviolet, read-out: IC50
# Experimental: as §1
# Hela (uterine cancer) = assay: In vitro cytotoxicity against human tumor cells, Hela; assay type: cell-based; conditions: 72 h, 3 days, 37° C., crystalviolet
# Experimental: as §1
# Meth A solid tumor = assay: Anti-tumor test against methyl cholanthrene-induced Meth A solid tumor; assay type: in vivo, Balb/C/SLC mice; conditions: 1-8 Days
# Experimental: Meth A tumor cells, 1.5×10^6, on Day 7 after intraperitoneal transplantation to Balb/C/SLC mice were subcutaneously transplanted to the left abdomen of Balb/C/SLC mice (5 week age, male) of 8 mice each being grouped in one (16 mice for the control group). The active component was orally administered in a definite dose 24 hours after the transplantation according to the schedule shown in Table 3. An effect of tumor growth inhibition was compared by measuring the long diameter and short diameter of the tumor on Days 15 and 21 after the transplantation, calculating the tumor size (mm^2) and determining a tumor growth inhibition rate of the active component-administered group to the control group.
# [3] = Day 14, 60 mg/kg i.p., Days 1, 2, 3, 4, 7, 8, 10 & 13
# [4] = Day 14, 100 mg/kg i.p., Days 1, 3, 7, 10, 13 & 14
# [5] = Day 14, 200 mg/kg p.o., Days 1, 2, 3, 4, 7, 8, 10 & 13
# [6] = Day 21, 60 mg/kg i.p., Days 1, 2, 3, 4, 7, 8, 10 & 13
# [7] = Day 21, 100 mg/kg i.p., Days 1, 3, 7, 10, 13 & 14
# [8] = Day 21, 200 mg/kg p.o., Days 1, 2, 3, 4, 7, 8, 10 & 13
# [9] = 6.25 mg/kg i.p., 1, 2, 3, 4 and 6 Days
# [10] = 12.5 mg/kg i.p., 1, 2, 3, 4 and 6 Days
# [11] = 25 mg/kg i.p., 1, 2, 3, 4 and 6 Days
# [12] = 50 mg/kg i.p., 1, 2, 3, 4 and 6 Days
# [13] = 100 mg/kg i.p., 1, 2, 3, 4 and 6 Days
# [14] = 200 mg/kg i.p., 1, 2, 3, 4 and 6 Days
smiles,measurement,setting,value
CCOC(=O)C(C)(C)CCCCOc1ccc(OCCCCCn2ccnc2)cc1 [Compound B],Growth Inhibition Rate,Ehrlich solid tumor; [3],25.7%
same,Size of Tumor,Ehrlich solid tumor; [3],107.3 ± 54.6 mm^2
same,Growth Inhibition Rate,Ehrlich solid tumor; [4],51.4%
same,Size of Tumor,Ehrlich solid tumor; [4],70.1 ± 33.8 mm^2
same,Growth Inhibition Rate,Ehrlich solid tumor; [5],66.3%
same,Size of Tumor,Ehrlich solid tumor; [5],48.7 ± 44.3 mm^2
same,Growth Inhibition Rate,Ehrlich solid tumor; [6],37.0%
same,Size of Tumor,Ehrlich solid tumor; [6],323.3 ± 163.4 mm^2
same,Growth Inhibition Rate,Ehrlich solid tumor; [7],38.5%
same,Size of Tumor,Ehrlich solid tumor; [7],315.3 ± 235.3 mm^2
same,Growth Inhibition Rate,Ehrlich solid tumor; [8],78.7%
same,Size of Tumor,Ehrlich solid tumor; [8],109.2 ± 133.5 mm^2
same,IC50,Bowes (melanoma),1 µg/mL
same,Median Survival Day,MM-46 ascites tumor; [9],7.0 days
same,Survivors (90 days),MM-46 ascites tumor; [9],0/10
same,T/C (median survival),MM-46 ascites tumor; [9],93.3%
same,Median Survival Day,MM-46 ascites tumor; [10],7.0 days
same,Survivors (90 days),MM-46 ascites tumor; [10],0/10
same,T/C (median survival),MM-46 ascites tumor; [10],93.3%
same,Median Survival Day,MM-46 ascites tumor; [11],8.5 days
same,Survivors (90 days),MM-46 ascites tumor; [11],0/10
same,T/C (median survival),MM-46 ascites tumor; [11],113.3%
same,Median Survival Day,MM-46 ascites tumor; [12],34.0 days
same,Survivors (90 days),MM-46 ascites tumor; [12],0/10
same,T/C (median survival),MM-46 ascites tumor; [12],453.3%
same,Median Survival Day,MM-46 ascites tumor; [13],49.0 days
same,Survivors (90 days),MM-46 ascites tumor; [13],1/10
same,T/C (median survival),MM-46 ascites tumor; [13],653.3%
same,Median Survival Day,MM-46 ascites tumor; [14],18.5 days
same,Survivors (90 days),MM-46 ascites tumor; [14],0/10
same,T/C (median survival),MM-46 ascites tumor; [14],246.7%
same,IC50,[1],0.8 µg/mL
same,IC50,[2],1.15 µg/mL
same,IC50,MM 46 (mammary cancer),0.7 µg/mL
same,IC50,L-1210,1.9 µg/mL
same,IC50,Ehrlich (carcinoma),0.5 µg/mL
same,IC50,ACHN (kidney cancer),2.3 µg/mL
same,IC50,Hela (uterine cancer),2.05 µg/mL
same,Growth Inhibition Rate,"Meth A solid tumor; Day 15, 100 mg/kg p.o.",27.5%
same,Size of Tumor,"Meth A solid tumor; Day 15, 100 mg/kg p.o.",163.0 ± 41.9 mm^2
same,Growth Inhibition Rate,"Meth A solid tumor; Day 15, 200 mg/kg p.o.",46.4%
same,Size of Tumor,"Meth A solid tumor; Day 15, 200 mg/kg p.o.",124.5 ± 60.2 mm^2
same,Growth Inhibition Rate,"Meth A solid tumor; Day 15, 400 mg/kg p.o.",53.6%
same,Size of Tumor,"Meth A solid tumor; Day 15, 400 mg/kg p.o.",104.4 ± 56.9 mm^2
same,Growth Inhibition Rate,"Meth A solid tumor; Day 21, 100 mg/kg p.o.",18.8%
same,Size of Tumor,"Meth A solid tumor; Day 21, 100 mg/kg p.o.",387.9 ± 101.8 mm^2
same,Growth Inhibition Rate,"Meth A solid tumor; Day 21, 200 mg/kg p.o.",39.2%
same,Size of Tumor,"Meth A solid tumor; Day 21, 200 mg/kg p.o.",290.8 ± 100.9 mm^2
same,Growth Inhibition Rate,"Meth A solid tumor; Day 21, 400 mg/kg p.o.",41.6%
same,Size of Tumor,"Meth A solid tumor; Day 21, 400 mg/kg p.o.",279.3 ± 152.1 mm^2
